Laboratory results taken from article PMC7939570, “Discovery of potent histone deacetylase inhibitors with modified phenanthridine caps” (Journal of Enzyme Inhibition and Medicinal Chemistry, 2021).

Columns and labels:
[1] = tested on: Hela nucleus extract containing a mixture of HDAC isoforms; test: HDAC enzyme inhibitory assay with Hela nucleus extract; format: biochemical; conditions: 1 µM, mean of three experiments
Description: The HDAC enzyme inhibitory activities of synthesised compounds were investigated by utilising Hela nucleus extract containing a mixture of HDAC isoforms. Percentage inhibitory rate was used to determine the activity of tested compounds (Tables 1 and 2). The Fa series compounds were firstly synthesised for the activity screening. […] To investigate whether aromatic linker could improve the inhibitory activities, structural modifications were performed on current molecules.

[2] = tested on: U937 cells; test: MTT antiproliferative assay, U937 cells; conditions: for IC50 / inhibition at 1 µM: Homo sapiens; for IC50: U-937, 48 h, read-out: U937 antiproliferative IC50; for inhibition at 1 µM: U-937, read-out: U937 percentage inhibitory rate, 1 µM
[3] = tested on: K562 cells; test: MTT antiproliferative assay, K562 cells; conditions: Homo sapiens, K562, 48 h, read-out: K562 antiproliferative IC50
[4] = tested on: U266 cells; test: MTT antiproliferative assay, U266 cells; conditions: Homo sapiens, U-266, 48 h, read-out: U266 antiproliferative IC50
[5] = tested on: MCF-7 cells; test: MTT antiproliferative assay, MCF-7 cells; conditions: Homo sapiens, MCF7, 48 h, read-out: MCF-7 antiproliferative IC50
[6] = tested on: HEPG2 cells; test: MTT antiproliferative assay, HEPG2 cells; conditions: Homo sapiens, HepG2, 48 h, read-out: HEPG2 antiproliferative IC50
[7] = tested on: MCF-7 cells; test: Cell cycle assay (PI, flow cytometry); conditions: 24 h
Description: After staining, the cell cycle distribution was determined by flow cytometry within 24 h.

[8] = tested on: MCF-7 cells; test: Cell apoptosis assay (Annexin V-FITC/PI, flow cytometry); conditions: 24 h, control 9.16%
Description: After incubating for 15 min, add 10 µL of PI to each sample and mix gently, and incubate for 5 min at 2–8 °C under dark conditions, and detect with a flow cytometer.

[9] = tested on: xenograft nude mice model; parameters: method as in PMID 31058081; conditions: in vivo; cited from earlier work
[10] = U937 cells, MTT, mean of three experiments

| Compound | HDACs percentage inhibitory rate [1] [%] | inhibition at 1 µM [2, 10] [%] | further results |
| --- | --- | --- | --- |
| CCc1ccc(C(=O)Nc2cc3c(cc2-c2ccc(C(=O)NCc4ccc(C(=O)NO)cc4)cc2)OCO3)cc1 [Fb-3, 4-({4-[6–(4-Ethyl-benzoylamino)-benzo[1,3]dioxol-5-yl]-benzoylamino}-methyl)-N-Hydroxy-benzamide] | 53.90 ± 1.82 | 96.05 ± 0.01 | IC50 [2]: 630 ± 20 nM; IC50 [3]: 470 ± 30 nM; IC50 [4]: 100 ± 20 nM; IC50 [5]: 530 ± 90 nM; IC50 [6]: 14.9 ± 0.78 µM |
| O=C(CCCCCCC(=O)Nc1ccccc1)NO [SAHA, Vorinostat, reference compound] |  |  | cell percentage at G2/M phase ([7]; 1 µM): 15.39%; cell percentage at G2/M phase ([7]; 3 µM): 20.75%; cell percentage at G2/M phase ([7]; 9 µM): 38.48%; IC50 [4]: 140 ± 60 nM; percentage of apoptotic cells ([8]; 1 µM): 11.38%; percentage of apoptotic cells ([8]; 3 µM): 12.30%; percentage of apoptotic cells ([8]; 9 µM): 19.51% |
| CCc1ccc(C(=O)Nc2cc3c(cc2-c2ccc(C(=O)NCCCC(=O)NO)cc2)OCO3)cc1 [Fa-7, 4-{4-[6-(4-Ethyl-benzoylamino)-benzo[1,3]dioxol-5-yl]-benzoylamino}-N-Hydroxy-butyramide] | 25.79 ± 5.79 | 22.2 ± 2.28 |  |
| O=C(CCCNC(=O)c1ccc(-c2cc3c(cc2NC(=O)c2ccc(C(F)(F)F)cc2)OCO3)cc1)NO [Fa-12, 4-{4-[6–(4-Trifluoromethyl-benzoylamino)-benzo[1,3]dioxol-5-yl]-benzoylamino}-N-Hydroxy-butyramide] | 17.69 ± 3.52 | 48.5 ± 3.98 |  |
| COc1ccc(C(=O)Nc2cc3c(cc2-c2ccc(C(=O)NCCCC(=O)NO)cc2)OCO3)cc1 [Fa-13, 4-{4-[6–(4-Methoxy-benzoylamino)-benzo[1,3]dioxol-5-yl]-benzoylamino}-N-Hydroxy-butyramide] | 44.51 ± 0.22 | 88.9 ± 5 |  |
| CC(C)(C)OC(=O)Nc1cc2c(cc1-c1ccc(C(=O)NCc3ccc(C(=O)NO)cc3)cc1)OCO2 [Fb-13, 4-{[4–(6-Tert-Butoxycarbonylamino-benzo[1,3]dioxol-5-yl)-benzoylamino]-methyl}-N-Hydroxy-benzamide] | 48.09 ± 3.01 | 75.5 ± 2.4 |  |
| O=C(NO)c1ccc(CNC(=O)c2ccc(-c3cc4c(cc3NC(=O)c3ccc(F)cc3)OCO4)cc2)cc1 [Fb-11, 4-({4-[6–(4-Fluoro-benzoylamino)-benzo[1,3]dioxol-5-yl]-benzoylamino}-methyl)-N-Hydroxy-benzamide] | 48.27 ± 0.62 | 59.2 ± 6.95 |  |
| O=C(CCCNC(=O)c1ccc(-c2cc3c(cc2NC(=O)c2ccccc2F)OCO3)cc1)NO [Fa-8, 4-{4-[6-(2-Fluoro-benzoylamino)-benzo[1,3]dioxol-5-yl]-benzoylamino}-N-Hydroxy-butyramide] | 5.32 ± 1.72 | 19.9 ± 1.96 |  |
| O=C(CCCNC(=O)c1ccc(-c2cc3c(cc2NC(=O)c2ccc(F)c(C(F)(F)F)c2)OCO3)cc1)NO [Fa-23, 4-{4-[6–(4-Fluoro-3-trifluoromethyl-benzoylamino)-benzo[1,3]dioxol-5-yl]-benzoylamino}-N-Hydroxy-butyramide] | 20.29 ± 0.29 | 17.4 ± 3.35 |  |
| O=C(CCCNC(=O)c1ccc(-c2cc3c(cc2NC(=O)c2ccc(F)cc2)OCO3)cc1)NO [Fa-3, 4-{4-[6-(4-Fluoro-benzoylamino)-benzo[1,3]dioxol-5-yl]-benzoylamino}-N-Hydroxy-butyramide] | 9.22 ± 2.28 | 19.4 ± 1.44 |  |
| O=C(CCCNC(=O)c1ccc(-c2cc3c(cc2NC(=O)c2ccc(F)cc2F)OCO3)cc1)NO [Fa-15, 4-{4-[6–(2,4-Difluoro-benzoylamino)-benzo[1,3]dioxol-5-yl]-benzoylamino}-N-Hydroxy-butyramide] | 19.51 ± 4.10 | 6.76 ± 0.26 |  |
| O=C(CCCNC(=O)c1ccc(-c2cc3c(cc2NC(=O)c2ccc(F)c(Cl)c2)OCO3)cc1)NO [Fa-19, 4-{4-[6–(3-Chloro-4-fluoro-benzoylamino)-benzo[1,3]dioxol-5-yl]-benzoylamino}-N-Hydroxy-butyramide] | 24.43 ± 2.90 | 15.8 ± 2.29 |  |
| O=C(NO)c1ccc(CNC(=O)c2ccc(-c3cc4c(cc3NC(=O)c3cccc(Br)c3)OCO4)cc2)cc1 [Fb-10, 4-({4-[6–(3-Bromo-benzoylamino)-benzo[1,3]dioxol-5-yl]-benzoylamino}-methyl)-N-Hydroxy-benzamide] | 49.47 ± 9.25 | 86.2 ± 4.18 |  |
| O=C(NO)c1ccc(CNC(=O)c2ccc(-c3cc4c(cc3NC(=O)c3ccccc3Cl)OCO4)cc2)cc1 [Fb-12, 4-({4-[6–(2-Chloro-benzoylamino)-benzo[1,3]dioxol-5-yl]-benzoylamino}-methyl)-N-Hydroxy-benzamide] | 59.61 ± 6.64 | 76.6 ± 6.97 |  |
| O=C(CCCNC(=O)c1ccc(-c2cc3c(cc2NC(=O)c2cc(F)cc(F)c2)OCO3)cc1)NO [Fa-14, 4-{4-[6–(3,5-Difluoro-benzoylamino)-benzo[1,3]dioxol-5-yl]-benzoylamino}-N-Hydroxy-butyramide] | 28.72 ± 4.74 | 9.84 ± 0.71 |  |
| COc1ccc(C(=O)Nc2cc3c(cc2-c2ccc(C(=O)NCc4ccc(C(=O)NO)cc4)cc2)OCO3)cc1 [Fb-2, 4-({4-[6–(4-Methoxy-benzoylamino)-benzo[1,3]dioxol-5-yl]-benzoylamino}-methyl)-N-Hydroxy-benzamide] | 52.30 ± 2.26 | 94.46 ± 0.41 | IC50 [2]: 920 ± 90 nM; IC50 [3]: 1190 ± 60 nM; IC50 [4]: 90 ± 10 nM; IC50 [5]: 940 ± 20 nM; IC50 [6]: 17.9 ± 1.04 µM |
| O=C(NO)c1ccc(CNC(=O)c2ccc(-c3cc4c(cc3NC(=O)c3cccc(F)c3)OCO4)cc2)cc1 [Fb-6, 4-({4-[6–(3-Fluoro-benzoylamino)-benzo[1,3]dioxol-5-yl]-benzoylamino}-methyl)-N-Hydroxy-benzamide] | 58.36 ± 5.06 | 92.2 ± 2.72 |  |
| O=C(CCCNC(=O)c1ccc(-c2cc3c(cc2NC(=O)c2ccccc2)OCO3)cc1)NO [Fa-11, 4-[4–(6-Benzoylamino-benzo[1,3]dioxol-5-yl)-benzoylamino]-N-Hydroxy-butyramide] | 14.32 ± 2.19 | 25.6 ± 1.76 |  |
| O=C(CCCNC(=O)c1ccc(-c2cc3c(cc2NC(=O)c2ccc(F)cc2C(F)(F)F)OCO3)cc1)NO [Fa-18, 4-{4-[6–(4-Fluoro-2-trifluoromethyl-benzoylamino)-benzo[1,3]dioxol-5-yl]-benzoylamino}-N-Hydroxy-butyramide] | 31.47 ± 3.47 | 10.3 ± 1.31 |  |
| 4-{4-[6–(3-Nitro-benzoylamino)-benzo[1,3]dioxol-5-yl]-benzoylamino}-N-Hydroxy-butyramide [Fa-17] | 52.44 ± 6.17 |  | U937 percentage inhibitory rate ([2]; 1 µM, U937 cells, MTT, mean of three experiments): 13.42 ± 0.81% |
| O=C(NO)c1ccc(CNC(=O)c2ccc(-c3cc4c(cc3NC(=O)c3ccccc3)OCO4)cc2)cc1 [Fb-1, 4-{[4–(6-Benzoylamino-benzo[1,3]dioxol-5-yl)-benzoylamino]-methyl}-N-Hydroxy-benzamide] | 57.50 ± 2.92 | 65.2 ± 0.29 |  |
| Nc1cc2c(cc1-c1ccc(C(=O)NCc3ccc(C(=O)NO)cc3)cc1)OCO2 [Fb-14, 4-{[4–(6-Amino-benzo[1,3]dioxol-5-yl)-benzoylamino]-methyl}-N-Hydroxy-benzamide] | 58.84 ± 2.40 | 75.6 ± 2.28 |  |
| ClC(Cl)(Cl)c1nc2cc3c(cc2c2cc4c(cc12)OCO4)OCO3 [Compound 8a] |  |  | hepatotoxicity [9]: obvious hepatotoxicity |
| COc1ccccc1C(=O)Nc1cc2c(cc1-c1ccc(C(=O)NCCCC(=O)NO)cc1)OCO2 [Fa-2, 4-{4-[6–(2-Methoxy-benzoylamino)-benzo[1,3]dioxol-5-yl]-benzoylamino}-N-Hydroxy-butyramide] | 15.23 ± 3.23 | 19.2 ± 1.09 |  |
| O=C(CCCNC(=O)c1ccc(-c2cc3c(cc2NC(=O)c2ccc(OC(F)(F)F)cc2)OCO3)cc1)NO [Fa-16, 4-{4-[6–(4-Trifluoromethoxy-benzoylamino)-benzo[1,3]dioxol-5-yl]-benzoylamino}-N-Hydroxy-butyramide] | 34.10 ± 1.02 | 16.1 ± 2.82 |  |
